{"source": "patent US20170298051A1", "about": "“ACTIVATOR OF ADIPONECTIN RECEPTOR” (THE UNIVERSITY OF TOKYO, priority 2013, published 2017)", "molecules": {"B1": {"name": "adiponectin: antidiabetic and antiatherogenic adipokine; mouse full-length adiponectin was generated as previously described (protein, UniProt Q60994 1-247, looked up)", "chain": "MLLLQALLFLLILPSHAEDDVTTTEELAPALVPPPKGTCAGWMAGIPGHPGHNGTPGRDGRDGTPGEKGEKGDAGLLGPKGETGDVGMTGAEGPRGFPGTPGRKGEPGEAAYVYRSAFSVGLETRVTVPNVPIRFTKIFYNQQNHYDGSTGKFYCNIPGLYYFSYHITVYMKDVKVSLFKKDKAVLFTYDQYQEKNVDQASGSVLLHLEVGDQVWLQVYGDGDHNGLYADNVNDSTFTGFLLYHDTN", "modifications": "full-length", "notes": "antidiabetic and antiatherogenic adipokine; mouse full-length adiponectin was generated as previously described"}}, "key": {"[1]": {"system": "AdipoR1", "assay": "Measurement of AMPK phosphorylation ability (Assay 2), C2C12 cells with unrelated or AdipoR1 siRNA", "assay_type": "cell-based, Mouse", "description": "C2C12 cells (ATCC; CRL-1772, medium; DMEM, 10% Fetal Bovine Serum (FBS)) were cultured in a 12- or 24-well plate until they reached 100% confluency (37° C., 5% CO2). The medium was changed to DMEM, 2.5% Horse Serum (HS) and differentiation was started. The medium (DMEM, 2.5% HS) was replaced two days after the start of differentiation. The medium (DMEM, 2.5% HS) was further replaced two days after that.\nOn the next day following the replacement of the medium, first, 1 μL of Lipofectamine RNAiMAX and 50 μL of OPTI-MEM were mixed, and then 5 μM siRNA (sense siRNA sequence: […]tt (SEQ ID NO: 1)) and 50 μL of OPTI-MEM were mixed and the resultants were left to stand at room temperature for 5 minutes. And then, the 1 μL Lipofectamine RNAiMAX/50 μL OPTI-MEM and the 5 μM siRNA/50 μL OPTI-MEM were mixed, and the resultant was left to stand at room temperature for 10 minutes, which was added to the cells.\nAfter 5 minutes, the medium (DMEM, 2.5 HS) was replaced, and after starvation on the next day, a test compound listed in Table 12 was added thereto. After 10 minutes, the medium was discarded and the plate was frozen with liquid nitrogen.\nThe respective amounts of pAMPK and AMPK were determined in the same way as in the above Assay 1."}, "[2]": {"system": "HF diet-induced obese mice", "assay": "Oral glucose tolerance test and insulin tolerance in HF diet-induced obese mice", "assay_type": "in vivo", "settings": "mice, FIG. 7", "description": "The original Adipor1^+/−/Adipor2^+/− mice (C57BL/6 and 129/Sv mixed background)^a were backcrossed with C57B1/6 mice more than seven times. All experiments in this study were conducted on male littermates.\n(§1) Mice were 6-10 week of age at the time of the experiment. They were housed in cages and maintained on a 12 hr light-dark cycle.\n(§2) Plasma glucose levels were determined by using a glucose B-test (Wako Pure Chemical Industries). Plasma insulin was measured with an insulin immunoassay (Shibayagi). Plasma NEFAs (Wako Pure Chemical Industries) were assayed by enzymatic methods.\n(§3) The oral glucose tolerance test (OGTT) and insulin tolerance test (ITT) were conducted as previously described^a,b with slight modifications. The areas of the glucose and insulin curves were calculated by multiplying the cumulative mean height of the glucose values (1 mg/ml=1 cm) and insulin values (1 ng/ml=1 cm), respectively, by time (60 min=1 cm)^c,a. The insulin resistance index was calculated from the product of the areas of glucose and insulin×10^−2 in the glucose tolerance test. The results are expressed as the percentage of the value respect to control littermates."}, "[3]": {"molecular_target": "T1, AdipoR1 (Mus musculus, UniProt Q91VH1)", "T1 construct": "C2C12 cells (ATCC; CRL-1772, medium; host or cells: differentiated C2C12", "T1 sequence (Q91VH1 1-375)": "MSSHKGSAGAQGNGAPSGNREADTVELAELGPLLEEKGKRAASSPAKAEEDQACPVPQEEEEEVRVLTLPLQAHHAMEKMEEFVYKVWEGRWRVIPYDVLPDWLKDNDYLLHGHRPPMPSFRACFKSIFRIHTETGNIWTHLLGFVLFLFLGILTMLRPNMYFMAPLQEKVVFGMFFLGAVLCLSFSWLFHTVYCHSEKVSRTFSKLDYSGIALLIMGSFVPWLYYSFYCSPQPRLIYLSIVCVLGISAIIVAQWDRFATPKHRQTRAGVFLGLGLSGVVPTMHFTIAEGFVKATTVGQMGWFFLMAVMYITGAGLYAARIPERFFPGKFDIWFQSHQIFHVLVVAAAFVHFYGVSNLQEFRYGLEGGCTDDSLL", "assay": "Measurement of AMPK phosphorylation ability (Assay 1), differentiated C2C12 cells, Western blotting", "assay_type": "cell-based", "settings": "10 μM, 10 minutes", "description": "The AMPK phosphorylation ability of the respective compounds according to the present invention was measured by using differentiated C2C12 cells or HEK 293T cells.\nC2C12 cells (ATCC; CRL-1772, medium; DMEM, 10% FBS) were cultured in a 12- or 24-well plate until they reached 100% confluency (37° C., 5% CO2).\nThe medium was changed to 2.5% Horse Serum (HS) and differentiation was started. The medium (DMEM, 2.5% HS) was replaced every three days.\nAfter starvation, a test compound listed in Table 12 (concentration: 10 μM) was added thereto, and after 10 minutes, the medium was discarded and the plate was frozen with liquid nitrogen.\nTo the 12- or 24-well cell plate which had been frozen was added 100 or 150 μL of Cell lysis buffer pH 7.4 (50 mM HEPES (pH 7.4), 2 mM sodium orthovanadate, 10 mM sodium pyrophosphate, 10 mM NaF, 2 mM EDTA, 2 mM EGTA, 0.1% (v/v) NP-40, 0.2 mM PMSF), and the cells were scraped off with a cell scraper, suspended and transferred into a micro centrifugal tube. And then, the cells were ultrasonically crushed (1 second×3 times) with a sonicator. Centrifugation was performed at 4° C. at 15,000 rpm for 15 minutes, and the supernatant was recovered into a new tube.\nTo 100 μL of the supernatant was added 25 μL of 5× sample buffer (280 mM Tris-HCl (pH 6.9), 40% glycerol, 10% (3-mercaptoethanol, 13% SDS, a small amount of bromophenol blue) and mixed together. The rest of the supernatant was used for protein quantification, and the protein concentrations were uniformed by adding 1× sample buffer depending on the concentration of each sample.\nAn electrophoresis chamber was filled with 1× SDS buffer (25 mM Tris-HCl, 250 mM glycine, 0.1% SDS), and the sample was applied to a well of polyacrylamide gel. Electrophoresis was performed until the bromophenol blue in the sample reached to the bottom of the gel.\nA filter paper was soaked in 1× Transfer buffer sufficiently, above which the PVDF membrane and the gel after electrophoresis were stacked in this order, and thereabove a filter paper which had been soaked in 1× Transfer buffer sufficiently was further stacked, from which an air was removed and the resultant was set in semi-dry type transfer apparatus and transferred (7V, 35 minutes).\nAn unnecessary portion of the blotted membrane was cutoff, and the rest was immediately soaked in blocking buffer (5% skimmed milk in Rinse buffer), and shaken at room temperature at 40 rpm for 3 hours.\nAfter blocking, the membrane was transferred into Rinse buffer, and washed at room temperature for 10 minutes while shaking. The membrane was soaked in a primary antibody solution (AMPK alpha Antibody (Cell signaling; #2532) 1/1,000 in Rinse buffer, Phospho-AMPK alpha (Thr172) (40H9) antibody (Cell signaling; #2535) 1/1,000 in Rinse buffer), and shaken at 4° C. at 40 rpm overnight.\nThe membrane was soaked in a secondary antibody solution (goat anti-rabbit IgG-HRP Antibody (Santa Cruz; sc-2030) 1/2,000 in Rinse buffer), and shaken at room temperature at 40 rpm for 1 hour.\nAfter the membrane was washed for 45 minutes in the same way as after the primary antibody reaction, the membrane was soaked in a chemiluminescent reaction solution (ECL Western Blotting Detection Reagents, GE Healthcare) for about 1 minute. An excess of the reaction solution was removed, and then the membranes were arranged on a transparent film and sandwiched with it, with which an X-ray film was exposed in a darkroom (for about several seconds to 60 seconds) to develop the film.\nThe X-ray film was scanned to take the image, for which the band was measured by using the image analysis software “Image J” to determine the respective amounts of pAMPK and AMPK."}, "[4]": {"system": "Lepr−/− (db/db) mice", "assay": "Anti-diabetic effects in db/db mice", "assay_type": "in vivo", "settings": "intraperitoneal (IP) injection", "description": "as §1\nMale Lepr^−/− (aged 6-10 week) were purchased from Jackson Laboratory. When the mice in the same genotype received different treatments, they were randomly assigned to treatment groups.\nas §2, §3"}}, "data": [{"molecule": "COc1ccc(CN2CCN(C(=O)CCNC(=O)c3ccc(C(C)(C)C)cc3)CC2)cc1", "note": "[Compound 74, 4-tert-butyl-N-(3-{4-[(4-methoxyphenyl)methyl]piperazin-1-yl}-3-oxopropyl) benzamide]", "values": [{"measurement": "pAMPK/AMPK (ratio) siRNA, AdipoR1 siRNA", "setting": "[1]", "value": 2.07, "unit": "ratio"}, {"measurement": "pAMPK/AMPK (ratio) siRNA, unrelated siRNA", "setting": "[1]", "value": 3.70, "unit": "ratio"}, {"measurement": "glucose intolerance and insulin resistance", "setting": "[2]", "value": "could improve glucose intolerance as well as insulin resistance"}, {"measurement": "pAMPK/AMPK (%)", "setting": "[3]", "value": 86.43, "unit": "%"}]}, {"molecule": "O=C(NC1CCN(Cc2ccccc2)CC1)c1ccc(Cl)c(Cl)c1", "note": "[No. 550212]", "values": [{"measurement": "pAMPK/AMPK (ratio) siRNA, AdipoR1 siRNA", "setting": "[1]", "value": 2.14, "unit": "ratio"}, {"measurement": "pAMPK/AMPK (ratio) siRNA, unrelated siRNA", "setting": "[1]", "value": 1.91, "unit": "ratio"}, {"measurement": "pAMPK/AMPK (%)", "setting": "[3]", "value": 80.04, "unit": "%"}]}, {"molecule": "B1", "values": [{"measurement": "plasma glucose level", "setting": "[4]", "value": "decreased plasma glucose level"}]}]}
